Data from PMC9607164, “Rational Design, Synthesis and Biological Evaluation of Novel Pyrazoline-Based Antiproliferative Agents in MCF-7 Cancer Cells” (Pharmaceuticals, 2022).
Values joined by “and” are separate entries in the source; they are usually repeats but may differ in a detail not shown here. Identical values can stand only once. Like-named read-outs stand apart in the source and are kept apart here.

How the values were obtained:
[1] = test system: MCF-7 cancer cells; experiment: MTT cytotoxicity assay on MCF-7; assay type: cell-based; conditions: for LogIC50 MCF-7: Figure 4 curve fit, cell viability vs. log [conc. µM]; for IC50: MTT assay, 48 h, n = 3, NA: Non-Active, read-out: IC50 ± SD, MCF-7
Protocol: (§1) Both breast cancer (MCF-7) and normal breast (MCF-10A) cells were purchased from National Research Institute, Egypt, and maintained in complete media of RPMI-1640 medium L-Glutamine (Lonza Verviers SPRL, Belgium, cat#12-604F). Cells were incubated following standard tissue culture work. Cell viability was measured 48 h later, utilizing MTT colorimetric assay (Promega, Madison, WI, USA). Absorbance was consequently assessed (at 570 nm) using an ELISA microplate reader (BIO-RAD, model iMark, Tokyo, Japan). Using GraphPad Prism 7, the IC50 values were determined, and the viability at each concentration was determined in comparison to the control.

[2] = test system: MCF-10A normal breast cells; experiment: MTT cytotoxicity assay on MCF-10A; assay type: cell-based; conditions: Homo sapiens, 48 h, n = 3, read-out: IC50 ± SD, MCF-10A
Protocol: as §1

[3] = biological target: T1, EGFR Kinase (Homo sapiens, UniProt P00533); experiment: EGFR Kinase Assay Kit (BPS Bioscience); assay type: biochemical; conditions: mean ± SD of three replicates, five concentrations
T1 construct: purchased BPS Bioscience 40321
Protocol: (§2) Compounds’ autophosphorylation percentage inhibition was computed according to the following equation: […] , then IC50 values were calculated using GraphPad prism software.

[4] = test system: MCF-7 cells; experiment: Annexin V/PI staining flow cytometry; assay type: cell-based; conditions: MCF-7, treated at IC50, 48 h; for late apoptosis: AV+/PI+; for early apoptosis: AV+/PI−; for apoptotic cell death (total): control 0.68%
Protocol: MCF-7 breast cancer cells were seeded into 6-well culture plates (3–5 × 10^5 cells/well) and incubated for 24 h. […] After that, the collection of the media supernatants and the cells was performed before undergoing rinsing with ice-cold PBS. The cells were suspended in 100 µL of annexin-binding buffer solution “25 mM CaCl2, 1.4 M NaCl, and 0.1 M Hepes/NaOH, pH 7.4” and incubated with “Annexin V-FITC solution (1:100) and propidium iodide (PI)” at a concentration equal 10 µg/mL in the dark for 30 min. Stained cells were then obtained by a Cytoflex FACS machine, and data analysis was performed using cytExpert software.

[5] = test system: MCF-7 cells; experiment: DNA content flow cytometry cell cycle analysis; assay type: cell-based; conditions: MCF-7 after treatment
[6] = test system: Bax; experiment: RT-PCR gene expression in MCF-7 cells; assay type: cell-based; conditions: MCF-7, IC50, 48 h, normalized to β-actin, untreated = 1
Protocol: (§3) Furthermore, to explore the apoptotic pathway, gene expression of proapoptotic genes (P53, Bax, Caspapses-3,8,9) and antiapoptotic gene (Bcl-2) was evaluated using routine RT-PCR in the untreated and treated MCF-7 cells. Ct values were calculated to determine the relative genes expression in all samples by normalization to β-actin (housekeeping gene).

[7] = test system: Bcl-2; experiment: RT-PCR gene expression in MCF-7 cells; assay type: cell-based; conditions: MCF-7, IC50, 48 h, normalized to β-actin, untreated = 1
Protocol: as §3

[8] = test system: Casp-3; experiment: RT-PCR gene expression in MCF-7 cells; assay type: cell-based; conditions: MCF-7, IC50, 48 h, normalized to β-actin, untreated = 1
Protocol: as §3

[9] = test system: Casp-8; experiment: RT-PCR gene expression in MCF-7 cells; assay type: cell-based; conditions: MCF-7, IC50, 48 h, normalized to β-actin, untreated = 1
Protocol: as §3

[10] = test system: Casp-9; experiment: RT-PCR gene expression in MCF-7 cells; assay type: cell-based; conditions: MCF-7, IC50, 48 h, normalized to β-actin, untreated = 1
Protocol: as §3

[11] = test system: P53; experiment: RT-PCR gene expression in MCF-7 cells; assay type: cell-based; conditions: MCF-7, IC50, 48 h, normalized to β-actin, untreated = 1
Protocol: as §3

[12] = test system: MCF-7 cells (Xenograft model); assay type: in vivo, mice; conditions: 10 mg/kg BW, IP
Text: In vivo experiments for lethal dose (LD50), experimental design, tumor mass, blood parameters, histopathological examinations were accomplished as previously described. After inoculating the tumor cells, masses of the solid tumor started to appear ten days later. […] Animals from each group were sacrificed, and their blood was drawn to measure hemoglobin (Hb), red blood cell (RBC), white blood cell (WBC), and liver enzymes (ALT, AST, albumin, and total protein) levels.

[13] = assay type: in vivo
Text: In vivo experiments for lethal dose (LD50), experimental design, tumor mass, blood parameters, histopathological examinations were accomplished as previously described. After inoculating the tumor cells, masses of the solid tumor started to appear ten days later. […]. Animals from each group were sacrificed, and their blood was drawn to measure hemoglobin (Hb), red blood cell (RBC), white blood cell (WBC), and liver enzymes (ALT, AST, albumin, and total protein) levels.

[14] = biological target: T2, HER2 Kinase (Homo sapiens, UniProt P04626); experiment: HER2 Kinase Assay Kit (BPS Bioscience); assay type: biochemical; conditions: mean ± SD of three replicates, five concentrations
T2 construct: purchased BPS Bioscience 40721
Protocol: as §2

[15] = test system: mutant EGFR (L858R); set-up: method as in PMID 35427766; conditions: allosteric inhibitor; cited from earlier work
[16] = test system: EGFR; set-up: method as in PMID 33872924; conditions: reported phenylthiazole derivative; cited from earlier work

T1 sequence (P00533 25-1210): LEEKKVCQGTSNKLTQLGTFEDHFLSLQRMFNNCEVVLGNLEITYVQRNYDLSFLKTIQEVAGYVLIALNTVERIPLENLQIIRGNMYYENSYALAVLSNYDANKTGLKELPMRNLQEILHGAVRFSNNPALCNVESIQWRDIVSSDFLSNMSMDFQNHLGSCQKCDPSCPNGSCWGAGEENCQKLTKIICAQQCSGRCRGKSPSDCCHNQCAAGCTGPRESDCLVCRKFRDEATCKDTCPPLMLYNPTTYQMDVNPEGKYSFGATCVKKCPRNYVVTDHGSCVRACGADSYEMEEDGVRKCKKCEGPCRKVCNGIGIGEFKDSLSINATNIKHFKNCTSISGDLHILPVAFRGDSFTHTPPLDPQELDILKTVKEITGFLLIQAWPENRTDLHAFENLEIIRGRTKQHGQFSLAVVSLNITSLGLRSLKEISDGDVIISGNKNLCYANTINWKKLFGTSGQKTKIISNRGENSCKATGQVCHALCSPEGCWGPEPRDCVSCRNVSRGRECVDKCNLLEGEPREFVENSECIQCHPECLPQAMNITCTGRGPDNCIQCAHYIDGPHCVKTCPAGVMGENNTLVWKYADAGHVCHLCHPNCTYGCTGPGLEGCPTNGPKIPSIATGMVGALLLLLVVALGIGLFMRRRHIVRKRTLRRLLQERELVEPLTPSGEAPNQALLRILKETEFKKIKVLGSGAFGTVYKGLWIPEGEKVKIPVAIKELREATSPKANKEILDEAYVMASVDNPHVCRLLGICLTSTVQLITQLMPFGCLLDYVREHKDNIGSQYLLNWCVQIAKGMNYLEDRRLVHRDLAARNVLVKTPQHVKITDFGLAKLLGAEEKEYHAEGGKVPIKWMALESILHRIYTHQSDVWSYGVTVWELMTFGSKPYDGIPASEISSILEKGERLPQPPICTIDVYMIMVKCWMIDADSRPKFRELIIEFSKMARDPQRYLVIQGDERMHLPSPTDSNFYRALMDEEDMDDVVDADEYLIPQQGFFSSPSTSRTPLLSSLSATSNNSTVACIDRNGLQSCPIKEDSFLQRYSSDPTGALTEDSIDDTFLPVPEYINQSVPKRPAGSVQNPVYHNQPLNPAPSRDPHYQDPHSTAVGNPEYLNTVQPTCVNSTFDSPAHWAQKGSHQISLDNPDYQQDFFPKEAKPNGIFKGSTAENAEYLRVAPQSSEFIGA
T2 sequence (P04626 23-1255): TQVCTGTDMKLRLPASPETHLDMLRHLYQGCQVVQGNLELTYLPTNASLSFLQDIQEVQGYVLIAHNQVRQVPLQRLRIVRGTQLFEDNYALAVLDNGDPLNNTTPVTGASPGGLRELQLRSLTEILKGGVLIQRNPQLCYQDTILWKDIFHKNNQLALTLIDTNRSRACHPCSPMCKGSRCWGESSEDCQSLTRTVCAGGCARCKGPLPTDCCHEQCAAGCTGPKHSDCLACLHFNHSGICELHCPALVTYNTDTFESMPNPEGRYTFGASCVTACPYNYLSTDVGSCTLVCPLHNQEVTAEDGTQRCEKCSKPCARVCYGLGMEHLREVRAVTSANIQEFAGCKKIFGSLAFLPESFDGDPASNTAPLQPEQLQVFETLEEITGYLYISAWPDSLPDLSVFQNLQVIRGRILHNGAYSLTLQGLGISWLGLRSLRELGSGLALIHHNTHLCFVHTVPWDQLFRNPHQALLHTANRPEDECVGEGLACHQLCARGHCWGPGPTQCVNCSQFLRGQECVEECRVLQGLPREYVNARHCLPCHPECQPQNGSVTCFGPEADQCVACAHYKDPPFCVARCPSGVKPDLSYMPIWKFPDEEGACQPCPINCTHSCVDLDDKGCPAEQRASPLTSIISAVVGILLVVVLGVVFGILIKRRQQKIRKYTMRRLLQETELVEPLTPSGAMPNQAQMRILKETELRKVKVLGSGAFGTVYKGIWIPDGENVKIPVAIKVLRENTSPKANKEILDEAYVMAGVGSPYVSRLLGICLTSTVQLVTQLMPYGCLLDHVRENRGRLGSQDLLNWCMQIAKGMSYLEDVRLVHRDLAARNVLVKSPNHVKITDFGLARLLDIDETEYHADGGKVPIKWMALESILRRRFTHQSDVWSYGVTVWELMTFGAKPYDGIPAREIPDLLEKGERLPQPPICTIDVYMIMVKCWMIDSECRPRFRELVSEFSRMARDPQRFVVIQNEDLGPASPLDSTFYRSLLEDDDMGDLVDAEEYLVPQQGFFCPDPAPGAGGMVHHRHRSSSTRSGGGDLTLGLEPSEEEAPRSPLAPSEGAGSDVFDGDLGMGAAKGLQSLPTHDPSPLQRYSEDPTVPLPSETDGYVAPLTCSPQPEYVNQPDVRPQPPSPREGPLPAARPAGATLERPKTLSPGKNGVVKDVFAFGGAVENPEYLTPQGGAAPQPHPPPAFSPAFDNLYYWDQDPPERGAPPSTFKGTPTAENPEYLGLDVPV

Structure (SMILES)	LogIC50 MCF-7 [1]	IC50 ([1]; Homo sapiens, MCF7, 48 h) [µM]	IC50 [1] [µM]	IC50 [2] [µM]	IC50 [3] [µM]	late apoptosis [4] [%]	early apoptosis [4] [%]	apoptotic cell death (total) [4] [%]	Fold Change = 2^−ΔΔCT, Bax [6]	Fold Change = 2^−ΔΔCT, Bcl-2 [7]	Fold Change = 2^−ΔΔCT, Casp-3 [8]	Fold Change = 2^−ΔΔCT, Casp-8 [9]	Fold Change = 2^−ΔΔCT, Casp-9 [10]	Fold Change = 2^−ΔΔCT, P53 [11]	also measured
COc1ccc(C2CC(c3ccc(OC)c(OC)c3)=NN2c2nc(-c3ccccc3)cs2)cc1 (stereo not shown) [Compound 6e, 2-(3-(3,4-Dimethoxyphenyl)-5-(4-methoxyphenyl)-4,5-dihydro-1H-pyrazol-1-yl)-4-phenylthiazole]	0.862	7.28	7.21 ± 0.48	≥ 50	0.009 ± 0.001	18.52	9.47	27.99	6.39 fold and 6.39 ± 0.8 fold	0.22 ± 0.06 fold	7.12 fold and 7.12 ± 0.53 fold	1.71 fold and 1.71 ± 0.18 fold	8.19 fold and 8.19 ± 0.32 fold	4.85 ± 0.4 fold	percentage of cells in the S phase ([5]; control 34.18): 44.52%; tumor inhibition ratio ([12]; seven administrations): 52.46%; tumor volume ([12]; decreased from 89.8): 28.4 mm^3; mice weight ([13]; 10 mg/kg BW, IP, MCF-7 control 32.28 g, normal 24.5 g): 28.23 g; histopathological examination of liver sections ([13]; mouse, in vivo): normal nuclei morphology in most of the cells with slight hydrophobic degeneration
COc1ccc(C2=NN(c3nc(-c4ccc(F)cc4)cs3)C(c3ccc(Cl)cc3)C2)cc1OC (stereo not shown) [Compound 6k, 2-(5-(4-Chlorophenyl)-3-(3,4-dimethoxyphenyl)-4,5-dihydro-1H-pyrazol-1-yl)-4-(4-fluorophenyl)thiazole]	0.9042	8.02	8.02 ± 0.98	≥ 50	0.014 ± 0.001	14.38	8.06	22.44	5.24 fold and 5.24 ± 0.4 fold	0.41 fold and 0.41 ± 0.09 fold	5.79 fold and 5.79 ± 0.4 fold	3.91 fold and 3.91 ± 0.42 fold	6.07 fold and 6.07 ± 0.23 fold	3.91 fold and 3.91 ± 0.50 fold	IC50 [14]: 0.027 ± 0.002 µM; percentage of cells in the G2/M phase ([5]; printed 'reduced by', control 9.7%): 2.01%
O=C(Nc1nccs1)C(c1cc(F)ccc1O)N1Cc2ccccc2C1=O (stereo not shown) [EAI045]															IC50 [15]: 0.019 µM
COc1ccc(-c2csc(NC(=O)CSc3nc(-c4ccc(OC)cc4)c(C#N)c(=O)[nH]3)n2)cc1 [VI]															IC50 [16]: 0.19 µM
